Peptide text beside a SMILES is read from it. * marks the point of attachment. Fmoc = O=C(OCC1c2ccccc2-c2ccccc21)*; Cbz = O=C(OCc1ccccc1)*; Boc = CC(C)(C)OC(=O)*

Test system in one assay: not listed separately
As to the kind of experiment: Macrophage migration-enhancing activity evaluated using rabbit alveolar macrophages at 1E-7M. The class given is functional, Oryctolagus cuniculus.
In the case of `NC(=O)C(Cc1c[nH]cn1)NC(=O)[C@@H](Cc1ccccc1)NC(=O)OCc1ccccc1` (some centres undefined), the MI amounted to 18. For the compound `NC(=O)[C@H](Cc1c[nH]cn1)NC(=O)[C@H](Cc1ccccc1)NC(=O)[C@H](Cc1ccccc1)NC(=O)[C@H](Cc1ccccc1)NC(=O)OCc1ccccc1` (Cbz-FFFH-NH2), the MI was found to be 15.

Take `CC(C)C[C@H](NC(=O)[C@H](Cc1ccccc1)NC(=O)OCc1ccccc1)C(=O)N[C@@H](Cc1c[nH]cn1)C(N)=O` (Cbz-Phe-Leu-His-NH2): the MI is given as 4. `NC(=O)[C@H](Cc1c[nH]cn1)NC(=O)[C@H](Cc1ccccc1)NC(=O)[C@H](Cc1ccccc1)NC(=O)OCC1c2ccccc2-c2ccccc21` (Fmoc-Phe-Phe-His-NH2): the MI is on record as 122. On to `NC(=O)[C@H](Cc1c[nH]cn1)NC(=O)[C@H](Cc1ccccc1)NC(=O)[C@H](Cc1ccccc1)NC(=O)OCc1ccccc1`, for which the MI is reported as 94. On the same count and under the same terms, under `CC(C)(C)OC(=O)N[C@@H](Cc1ccccc1)C(=O)N[C@@H](Cc1ccccc1)C(=O)N[C@@H](Cc1c[nH]cn1)C(N)=O` (Boc-Phe-Phe-His-NH2) stands 96.

Turning to `NC(=O)[C@H](Cc1c[nH]cn1)NC(=O)[C@H](Cc1c[nH]c2ccccc12)NC(=O)[C@H](Cc1c[nH]c2ccccc12)NC(=O)OCc1ccccc1` (Cbz-Trp-Trp-His-NH2), the MI is 4.

For the compound `NC(=O)[C@H](Cc1c[nH]cn1)NC(=O)[C@H](Cc1ccccc1)NC(=O)[C@H](Cc1ccccc1)N1C(=O)c2ccccc2C1=O`, the MI is recorded as -1. The same measure, in the same setting: under `O=C(N[C@@H](Cc1ccccc1)C(=O)N[C@@H](Cc1ccccc1)C(=O)N[C@@H](Cc1c[nH]cn1)C(=O)O)OCc1ccccc1` (Cbz-Phe-Phe-His-OH) stands -6.

As to `C[C@H](NC(=O)OCc1ccccc1)C(=O)N[C@@H](Cc1ccccc1)C(=O)N[C@@H](Cc1c[nH]cn1)C(N)=O` (Cbz-Ala-Phe-His-NH2), the MI worked out at 2. Take `NC(=O)[C@H](Cc1c[nH]cn1)NC(=O)[C@H](Cc1ccccc1)NC(=O)[C@@H](N)Cc1ccccc1` (H-Phe-Phe-His-NH2): the MI is reported as 7. Still for that read-out and setting: under `NC(=O)[C@H](Cc1c[nH]cn1)NC(=O)[C@H](Cc1ccccc1)NC(=O)[C@@H](Cc1ccccc1)NC(=O)OCc1ccccc1` stands 2. On the same count and under the same terms, under `N=C(N)NCCC[C@H](NC(=O)[C@H](Cc1ccccc1)NC(=O)[C@H](Cc1ccccc1)NC(=O)OCc1ccccc1)C(N)=O` (Cbz-Phe-Phe-Arg-NH2) stands 8; under `COC(=O)[C@H](Cc1c[nH]cn1)NC(=O)[C@H](Cc1ccccc1)NC(=O)[C@H](Cc1ccccc1)NC(=O)OCc1ccccc1` (Cbz-Phe-Phe-His-OMe), 97. On the same count and under the same terms, under `NC(=O)[C@H](Cc1c[nH]cn1)NC(=O)[C@H](Cc1ccc(O)cc1)NC(=O)[C@H](Cc1ccccc1)NC(=O)OCc1ccccc1` (Cbz-Phe-Tyr-His-NH2) stands -23; under `CC(C)C[C@H](NC(=O)OCc1ccccc1)C(=O)N[C@@H](Cc1ccccc1)C(=O)N[C@@H](Cc1c[nH]cn1)C(N)=O` (Cbz-Leu-Phe-His-NH2), 4; under `NC(=O)[C@H](Cc1ccccc1)NC(=O)[C@H](Cc1c[nH]cn1)NC(=O)[C@H](Cc1ccccc1)NC(=O)OCc1ccccc1` (Cbz-Phe-His-Phe-NH2), -1. As to `NC(=O)[C@H](Cc1c[nH]cn1)NC(=O)[C@H](Cc1ccccc1)NC(=O)[C@H](Cc1c[nH]c2ccccc12)NC(=O)OCc1ccccc1` (Cbz-Trp-Phe-His-NH2), the MI turned out to be 14. Same read-out and setting: the result for `CC(=O)N[C@@H](Cc1ccccc1)C(=O)N[C@@H](Cc1ccccc1)C(=O)N[C@@H](Cc1c[nH]cn1)C(N)=O` (Ac-Phe-Phe-His-NH2) reads 61; that for `CC(C)[C@H](NC(=O)OCc1ccccc1)C(=O)N[C@@H](Cc1ccccc1)C(=O)N[C@@H](Cc1c[nH]cn1)C(N)=O` (Cbz-Val-Phe-His-NH2), 3. On the same count and under the same terms, the result for `CCOC(=O)[C@H](Cc1c[nH]cn1)NC(=O)[C@H](Cc1ccccc1)NC(=O)[C@H](Cc1ccccc1)NC(=O)OCc1ccccc1` (Cbz-Phe-Phe-His-OEt) reads 95.

For `NC(=O)[C@@H](Cc1c[nH]cn1)NC(=O)[C@H](Cc1ccccc1)NC(=O)[C@H](Cc1ccccc1)NC(=O)OCc1ccccc1`, the MI was -1. Still for that read-out and setting: the result for `NC(=O)[C@H](Cc1c[nH]cn1)NC(=O)[C@H](Cc1c[nH]c2ccccc12)NC(=O)[C@H](Cc1ccccc1)NC(=O)OCc1ccccc1` (Cbz-Phe-Trp-His-NH2) reads 7; that for `NCCCC[C@H](NC(=O)[C@H](Cc1ccccc1)NC(=O)[C@H](Cc1ccccc1)NC(=O)OCc1ccccc1)C(N)=O` (Cbz-Phe-Phe-Lys-NH2), 3; that for `NC(=O)[C@H](Cc1c[nH]cn1)NC(=O)[C@H](Cc1ccccc1)NC(=O)[C@H](Cc1ccc(O)cc1)NC(=O)OCc1ccccc1` (Cbz-Tyr-Phe-His-NH2), -28. The same measure, in the same setting: the result for `NC(=O)[C@H](Cc1c[nH]cn1)NC(=O)[C@H](Cc1ccc(O)cc1)NC(=O)[C@H](Cc1ccc(O)cc1)NC(=O)OCc1ccccc1` (Cbz-Tyr-Tyr-His-NH2) reads -25; that for `NC(=O)[C@H](Cc1c[nH]cn1)NC(=O)[C@@H](Cc1ccccc1)NC(=O)[C@H](Cc1ccccc1)NC(=O)OCc1ccccc1`, 0; that for `NC(=O)[C@H](Cc1ccccc1)NC(=O)[C@H](Cc1ccccc1)NC(=O)[C@H](Cc1c[nH]cn1)NC(=O)OCc1ccccc1` (Cbz-His-Phe-Phe-NH2), 1.

The species entered for the next assay is Oryctolagus cuniculus. As to the kind of experiment: Macrophage migration-enhancing activity was evaluated using rabbit alveolar macrophages expressed as Migration Index (MI). The class given is functional.
`Clc1ccc(C2=N[C@H](c3ccccc3)[C@H](c3ccccc3)N2)cc1`: the MI came out at 140.

These data come from ChEMBL document CHEMBL1131350, “Design of novel tripeptides with macrophage migration-enhancing activity” (1998).
